According to PubChem BioAssay (NCI):
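Where inhibition never reached the appropriate level, the endpoint shown equals the highest concentration tested. Otherwise, values were interpolated linearly from a five-concentration, 48-hour dose response in 96-well plates. At the TGI there is no net growth.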

Columns and labels:
Assay in all cases: growth of human tumour cells (NCI), 48 h
DU-145 prostate = tested on: DU-145 prostate
OVCAR-8 ovarian = tested on: OVCAR-8 ovarian
SR leukemia = tested on: SR leukemia
UACC-257 melanoma = tested on: UACC-257 melanoma
SF-268 CNS = tested on: SF-268 CNS
HCC-2998 colon = tested on: HCC-2998 colon
MCF7 breast = tested on: MCF7 breast
SK-OV-3 ovarian = tested on: SK-OV-3 ovarian
U251 CNS = tested on: U251 CNS
UACC-62 melanoma = tested on: UACC-62 melanoma
T-47D breast = tested on: T-47D breast
SK-MEL-2 melanoma = tested on: SK-MEL-2 melanoma
ACHN renal = tested on: ACHN renal
MALME-3M melanoma = tested on: MALME-3M melanoma
RXF 393 renal = tested on: RXF 393 renal
EKVX NSCLC = tested on: EKVX NSCLC
M14 melanoma = tested on: M14 melanoma
LOX IMVI melanoma = tested on: LOX IMVI melanoma
HOP-92 NSCLC = tested on: HOP-92 NSCLC
CCRF-CEM leukemia = tested on: CCRF-CEM leukemia
NCI-H23 lung = tested on: NCI-H23 lung
PC-3 prostate = tested on: PC-3 prostate
RPMI-8226 leukemia = tested on: RPMI-8226 leukemia
HL-60(TB) leukemia = tested on: HL-60(TB) leukemia
MDA-MB-435 = tested on: MDA-MB-435
HCT-15 colon = tested on: HCT-15 colon
HCT-116 colon = tested on: HCT-116 colon
OVCAR-3 ovarian = tested on: OVCAR-3 ovarian
HS 578T breast = tested on: HS 578T breast
HT29 colon = tested on: HT29 colon
SNB-19 CNS = tested on: SNB-19 CNS
MDA-MB-231 breast = tested on: MDA-MB-231 breast
BT-549 breast = tested on: BT-549 breast
SK-MEL-28 melanoma = tested on: SK-MEL-28 melanoma
NCI/ADR-RES ovarian = tested on: NCI/ADR-RES ovarian
IGROV1 ovarian = tested on: IGROV1 ovarian
SW-620 colon = tested on: SW-620 colon
NCI-H522 lung = tested on: NCI-H522 lung
TK-10 renal = tested on: TK-10 renal
SF-539 CNS = tested on: SF-539 CNS
SNB-75 CNS = tested on: SNB-75 CNS
OVCAR-4 ovarian = tested on: OVCAR-4 ovarian
NCI-H226 lung = tested on: NCI-H226 lung
COLO 205 colon = tested on: COLO 205 colon
KM12 colon = tested on: KM12 colon
SN12C renal = tested on: SN12C renal
MDA-N = tested on: MDA-N
SF-295 CNS = tested on: SF-295 CNS
A498 renal = tested on: A498 renal
SK-MEL-5 melanoma = tested on: SK-MEL-5 melanoma
A549 NSCLC = tested on: A549 NSCLC
OVCAR-5 ovarian = tested on: OVCAR-5 ovarian
HOP-62 NSCLC = tested on: HOP-62 NSCLC
CAKI-1 renal = tested on: CAKI-1 renal
UO-31 renal = tested on: UO-31 renal
NCI-H460 lung = tested on: NCI-H460 lung
786-0 renal = tested on: 786-0 renal
MOLT-4 leukemia = tested on: MOLT-4 leukemia
K-562 leukemia = tested on: K-562 leukemia

CC1=NN(c2nc(N)nc(/C(C#N)=C/c3cccn3-c3cc(Cl)cc(Cl)c3)n2)C(C)(C)C1
TGI (DU-145 prostate): > 100 µM | TGI (OVCAR-8 ovarian): > 100 µM | TGI (SR leukemia): > 100 µM | TGI (UACC-257 melanoma): > 100 µM | TGI (SF-268 CNS): > 100 µM | TGI (HCC-2998 colon): > 100 µM | TGI (MCF7 breast): > 100 µM | TGI (SK-OV-3 ovarian): > 100 µM | TGI (U251 CNS): 28.3 µM | TGI (UACC-62 melanoma): > 100 µM | TGI (T-47D breast): > 100 µM | TGI (SK-MEL-2 melanoma): > 100 µM | TGI (ACHN renal): > 100 µM | TGI (MALME-3M melanoma): > 100 µM | TGI (RXF 393 renal): > 100 µM | TGI (EKVX NSCLC): > 100 µM | TGI (M14 melanoma): > 100 µM | TGI (LOX IMVI melanoma): > 100 µM | TGI (HOP-92 NSCLC): > 100 µM | TGI (CCRF-CEM leukemia): > 100 µM | TGI (NCI-H23 lung): > 100 µM | TGI (PC-3 prostate): > 100 µM | TGI (RPMI-8226 leukemia): > 100 µM | TGI (HL-60(TB) leukemia): > 100 µM | TGI (MDA-MB-435): > 100 µM | TGI (HCT-15 colon): > 100 µM | TGI (HCT-116 colon): > 100 µM | TGI (OVCAR-3 ovarian): > 100 µM | TGI (HS 578T breast): > 100 µM | TGI (HT29 colon): > 100 µM | TGI (SNB-19 CNS): > 100 µM | TGI (MDA-MB-231 breast): > 100 µM | TGI (BT-549 breast): > 100 µM | TGI (SK-MEL-28 melanoma): > 100 µM | TGI (NCI/ADR-RES ovarian): > 100 µM | TGI (IGROV1 ovarian): > 100 µM | TGI (SW-620 colon): > 100 µM | TGI (NCI-H522 lung): > 100 µM | TGI (TK-10 renal): > 100 µM | TGI (SF-539 CNS): > 100 µM | TGI (SNB-75 CNS): 99.7 µM | TGI (OVCAR-4 ovarian): > 100 µM | TGI (NCI-H226 lung): > 100 µM | TGI (COLO 205 colon): > 100 µM | TGI (KM12 colon): > 100 µM | TGI (SN12C renal): > 100 µM | TGI (MDA-N): > 100 µM | TGI (SF-295 CNS): > 100 µM | TGI (A498 renal): > 100 µM | TGI (SK-MEL-5 melanoma): > 100 µM | TGI (A549 NSCLC): > 100 µM | TGI (OVCAR-5 ovarian): > 100 µM | TGI (HOP-62 NSCLC): 67.3 µM | TGI (CAKI-1 renal): > 100 µM | TGI (UO-31 renal): > 100 µM | TGI (NCI-H460 lung): > 100 µM | TGI (786-0 renal): > 100 µM

CSC1=N/C(=C\c2ccco2)C(=O)N1CN1CCOCC1
TGI (DU-145 prostate): > 100 µM | TGI (OVCAR-8 ovarian): > 100 µM | TGI (MOLT-4 leukemia): > 96.2 µM | TGI (SR leukemia): > 92.6 µM | TGI (UACC-257 melanoma): > 100 µM | TGI (SF-268 CNS): > 78.3 µM | TGI (HCC-2998 colon): 97 µM | TGI (K-562 leukemia): > 100 µM | TGI (MCF7 breast): > 100 µM | TGI (SK-OV-3 ovarian): > 100 µM | TGI (U251 CNS): > 100 µM | TGI (UACC-62 melanoma): > 100 µM | TGI (T-47D breast): > 100 µM | TGI (SK-MEL-2 melanoma): > 100 µM | TGI (ACHN renal): > 89.4 µM | TGI (MALME-3M melanoma): > 80.7 µM | TGI (RXF 393 renal): 44.6 µM | TGI (EKVX NSCLC): > 100 µM | TGI (M14 melanoma): > 100 µM | TGI (LOX IMVI melanoma): > 100 µM | TGI (CCRF-CEM leukemia): > 90.3 µM | TGI (NCI-H23 lung): > 100 µM | TGI (PC-3 prostate): > 100 µM | TGI (RPMI-8226 leukemia): > 80.4 µM | TGI (MDA-MB-435): > 100 µM | TGI (HCT-15 colon): > 100 µM | TGI (HCT-116 colon): > 66.9 µM | TGI (OVCAR-3 ovarian): > 100 µM | TGI (HS 578T breast): > 100 µM | TGI (HT29 colon): > 100 µM | TGI (SNB-19 CNS): > 100 µM | TGI (MDA-MB-231 breast): > 100 µM | TGI (BT-549 breast): 41.2 µM | TGI (SK-MEL-28 melanoma): > 100 µM | TGI (NCI/ADR-RES ovarian): > 100 µM | TGI (IGROV1 ovarian): > 100 µM | TGI (SW-620 colon): > 95.4 µM | TGI (NCI-H522 lung): > 100 µM | TGI (TK-10 renal): > 100 µM | TGI (SF-539 CNS): 35.3 µM | TGI (SNB-75 CNS): > 100 µM | TGI (OVCAR-4 ovarian): > 100 µM | TGI (NCI-H226 lung): > 100 µM | TGI (COLO 205 colon): > 100 µM | TGI (KM12 colon): > 100 µM | TGI (SN12C renal): > 88.7 µM | TGI (MDA-N): > 100 µM | TGI (SF-295 CNS): > 100 µM | TGI (A498 renal): > 100 µM | TGI (SK-MEL-5 melanoma): > 80.3 µM | TGI (A549 NSCLC): > 100 µM | TGI (OVCAR-5 ovarian): > 100 µM | TGI (HOP-62 NSCLC): > 100 µM | TGI (CAKI-1 renal): > 100 µM | TGI (UO-31 renal): > 100 µM | TGI (NCI-H460 lung): 27.7 µM | TGI (786-0 renal): > 100 µM

O=C(Nc1nc2ccccc2s1)c1cc([N+](=O)[O-])ccc1Cl
TGI (DU-145 prostate): 86.3 µM | TGI (OVCAR-8 ovarian): > 45.4 µM | TGI (MOLT-4 leukemia): 9.93 µM | TGI (SR leukemia): > 100 µM | TGI (UACC-257 melanoma): > 100 µM | TGI (SF-268 CNS): 62 µM | TGI (HCC-2998 colon): 53.6 µM | TGI (K-562 leukemia): > 100 µM | TGI (MCF7 breast): > 22.6 µM | TGI (SK-OV-3 ovarian): > 100 µM | TGI (U251 CNS): > 91.6 µM | TGI (UACC-62 melanoma): > 100 µM | TGI (T-47D breast): > 100 µM | TGI (SK-MEL-2 melanoma): > 100 µM | TGI (ACHN renal): > 100 µM | TGI (MALME-3M melanoma): > 100 µM | TGI (RXF 393 renal): 15.9 µM | TGI (EKVX NSCLC): > 100 µM | TGI (M14 melanoma): > 47.8 µM | TGI (LOX IMVI melanoma): 13.7 µM | TGI (HOP-92 NSCLC): > 38.9 µM | TGI (CCRF-CEM leukemia): 8.77 µM | TGI (NCI-H23 lung): > 43.4 µM | TGI (PC-3 prostate): > 70.3 µM | TGI (RPMI-8226 leukemia): > 100 µM | TGI (HL-60(TB) leukemia): 4.41 µM | TGI (MDA-MB-435): > 100 µM | TGI (HCT-15 colon): > 41.4 µM | TGI (HCT-116 colon): > 100 µM | TGI (OVCAR-3 ovarian): > 82.5 µM | TGI (HS 578T breast): 15.7 µM | TGI (HT29 colon): 65.9 µM | TGI (SNB-19 CNS): > 100 µM | TGI (MDA-MB-231 breast): > 100 µM | TGI (BT-549 breast): > 30.9 µM | TGI (SK-MEL-28 melanoma): > 100 µM | TGI (NCI/ADR-RES ovarian): > 76.4 µM | TGI (SW-620 colon): > 51.4 µM | TGI (NCI-H522 lung): 11.6 µM | TGI (TK-10 renal): > 100 µM | TGI (SF-539 CNS): 28.5 µM | TGI (SNB-75 CNS): > 100 µM | TGI (OVCAR-4 ovarian): > 100 µM | TGI (NCI-H226 lung): > 100 µM | TGI (COLO 205 colon): > 100 µM | TGI (KM12 colon): > 48.1 µM | TGI (SN12C renal): > 100 µM | TGI (MDA-N): > 31.6 µM | TGI (SF-295 CNS): > 100 µM | TGI (A498 renal): > 100 µM | TGI (SK-MEL-5 melanoma): 25.1 µM | TGI (A549 NSCLC): > 100 µM | TGI (OVCAR-5 ovarian): > 100 µM | TGI (HOP-62 NSCLC): > 100 µM | TGI (CAKI-1 renal): > 100 µM | TGI (UO-31 renal): > 100 µM | TGI (NCI-H460 lung): > 59.4 µM | TGI (786-0 renal): > 58.6 µM
